Measured values published in patent US9278982B2, “Targeting human thymidylate kinase induces DNA repair toxicity in malignant tumor cells” (NATIONAL YANG-MING UNIVERSITY, priority 2010, dated 2016).

What was measured:
MDA-MB231 cells [1] = test: Repair of doxorubicin-induced DNA lesions (γH2AX, Rad51, XRCC1 foci staining); type: cell-based, human
Method: FIG. 14. Effect of YMU1 on genomic toxicity and DNA repair. […] After overnight, cells were exposed to doxorubicin and recovered. […]
For γH2AX, Rad51 and XRCC1 staining, cells were fixed with 4% paraformaldehyde for 30 min at room temperature and were incubated with TBS (50 mM Tris-HCl, pH 7.4, 150 mM NaCl) plus 0.3% Triton X-100 for 5 min. The coverslips were blocked with MAXblock™ (Active Motif) for 1 h at 37° C., followed by staining with primary antibodies: anti-γH2AX monoclonal antibody (1:1000), anti-Rad51 polyclonal antibody (1:500) or anti-XRCC1 monoclonal antibody (1:500) overnight at 4° C. After extensive washing, cells were stained with secondary antibodies and Hoechst 33342 for 1 h at room temperature. After mounting, cells were analyzed and photographed with a Carl Zeiss fluorescence microscope equipped with AxioCam digital camera and Axio Vision Rel. 4.8 imaging software.

MDA-MB231 cells [2] = test: Comet assay of DNA repair efficiency after doxorubicin; type: cell-based, human; settings: YMU1 treatment, after removal of doxorubicin (0.1 μM)
Method: FIG. 15. […] DNA repair efficiency was measured by comet assay at indicated time after removal of doxorubicin (0.1 μM) in MDA-MB231 cells. Image of DNA comet was acquired and quantified by using scion image software for tail moment determination. Data were expressed as mean±s.d. by counting at least 70 comets per sample in 3 independent experiments. **, P<0.01 based on a two-tailed Student's t-test.
Alkaline comet assays were performed using a Trevigen's Comet Assay kit (4250-050-k) according to the manufacturer's instruction. DNA was stained with SYBR Green, and slides were photographed digitally (Olympus BX51 microscope and Olympus camera). Tail moments were analyzed using Scoin Image software.

HCT-116 p53−/− cells = test: In vivo xenograft model, sensitization to low-dose doxorubicin; parameters: species or system Balb/c nude mice
Method: FIG. 16. In vitro and in vivo effect of YMU1 on doxorubicin sensitization. (A) A panel of cell lines were pre-treated with vehicle, YMU1 (compound 21), D6 (ethyl 4-(2-chloroacetyl)piperazine-1-carboxylate) or D7 (compound 28) for 3 days and were exposed to different concentration of doxorubicin for 4 h. […] The enhancement (fold) of doxorubicin sensitivity in each cell line was calculated. Data represent mean±s.d., n=3; each experiment was quadruplex. Inset indicates the IC50 value of doxorubicin in various cell lines. […] Following overnight culture, cells were refreshed with growth medium. After 14 days of culture, colonies were fixed, stained by crystal violet and counted. (C) HCT-116 p53^−/− cells were subcutaneously implanted in the right flank of Balb/c nude mice (each experimental group n=8). Arrow indicated the time of stopping drug treatment. The tumor volume was estimated as described in Methods of the Invention section. (D) After 2 weeks recovered from treatment, mice were sacrificed for tumor weight measurement. Data represent mean±s.e.m; **, P<0.01 by a two-tailed Student's t-test. (E) Ki 67 proliferation marker staining of tumor shown in left panel. Scale bar, 50 μm. (F) Model of doxorubicin sensitization by YMU1 in malignant cancer cells. […]
We also used an in vivo xenograft model to examine the effect of YMU1 as an adjuvant on sensitization to low-dose doxorubicin treatment. […] Two weeks after the last injections were administered, mice were sacrificed and tumor weights measured. […]
Female BALB/c AnN.Cg-Foxnl^nu/Crl Nurl mice 6-8 weeks of age (National Laboratory Animal Center, Taiwan) were used for the tumor xenograft model. […] The tumor size was measured every day after initiated drug treatment with an electronic caliper. […]
Monoclonal Ki 67 antibody (B56) was purchased from BD PharMingen. Paraffin-embedded tumor sections (5 μm) were incubated with the primary antibody, detected with a LSAB™ kit (DakoCytomation) according to the manufacturer's instructions and counterstained with hematoxylin.

In vivo toxicity of YMU1 = test: In vivo toxicity of YMU1; parameters: species or system Balb/c mice
[3] = test system: H184B5F5/M10, MCF-10A, MCF-7 and HCT-116 p53−/− cells
Method: (B) H184B5F5/M10 cells were seeded onto 100 mm-dish at 5,000 cells/dish. MCF-10A, MCF-7 and HCT-116 p53^−/− cells were seeded onto 6 well plate at 600 cells/well. Following overnight culture, cells were treated with various concentration of YMU1 or FdUrd thrice a week. After 14 days colonies were fixed, stained by crystal violet.
We also compared the effect of YMU1 and FdUrd on cell viability of non-tumorigenic mammary cycling cells, H184B5F5/M10 and MCF-10A and tumor lines, MCF-7 and HCT-116 p53^−/− cells.
After 14 days, colonies were fixed and stained by crystal violet and counted.

[4] = YMU1 2 μM 72 h, doxorubicin exposure and recovery

In the case of `CCOC(=O)N1CCN(C(=O)Cn2sc3nc(C)cc(C)c3c2=O)CC1` [compound 21, Ethyl 4-(2-(4,6-dimethyl-3-oxoisothiazolo[5,4-b]pyridin-2(3H)-yl)acetyl) piperazine-1-carboxylate], the Rad51 foci (MDA-MB231 cells [1]; [4]) is reported as “persistent Rad51 foci”, the XRCC1 foci formation (MDA-MB231 cells [1]; [4]) is reported as “increase in XRCC1 foci formation” and the “numbers of DNA lesions formation (γH2AX focus staining)” value (MDA-MB231 cells [1]; YMU1 2 μM 72 h pre-treatment, doxorubicin 0.1 μM) is reported as “did not affect numbers of DNA lesions formation”. The “cells still γH2AX-positive” value (MDA-MB231 cells [1]; YMU1 2 μM 72 h pretreatment, recovery 48 h post-doxorubicin (0.1 μM) exposure) was “over 70%”, the “DNA repair (comet assay, tail moment)” value (MDA-MB231 cells [2]) was “impairment of DNA repair” and the “growth of tumors, YMU1 combined with doxorubicin” value (HCT-116 p53−/− cells; YMU1 15 mg/kg thrice a week + doxorubicin 1.25 mg/kg twice a week, i.p., 4 weeks) was “much slower”. The “tumor proliferation index (Ki 67 immunostaining), YMU1 combined with doxorubicin” value (HCT-116 p53−/− cells; combinatory treatment of YMU1 and doxorubicin) was “clearly reduced”, the “average tumor size relative to control mice, YMU1 combined with doxorubicin” value (HCT-116 p53−/− cells; two weeks after the last injections, YMU1 15 mg/kg thrice a week + doxorubicin 1.25 mg/kg twice a week, i.p.) was 25% and the Body weight (In vivo toxicity of YMU1; Pre-treat, n = 4, Mean ± SEM) was 19.93 ± 1.63 g. For the same compound, the Clinical observations (In vivo toxicity of YMU1; Treatment group n = 4, YMU1 4 weeks) was “Nil”, the Body weight (In vivo toxicity of YMU1; Week -2, n = 4, Mean ± SEM) was 20.88 ± 1.07 g and the Body weight (In vivo toxicity of YMU1; Week-1, n = 4, Mean ± SEM) was 20.48 ± 1.43 g. The Body weight (In vivo toxicity of YMU1; Week-3, n = 4, Mean ± SEM) was 21.25 ± 1.13 g, the Body weight (In vivo toxicity of YMU1; Week-4, n = 4, Mean ± SEM) was 21.30 ± 0.96 g and the “mouse body weight” value (In vivo toxicity of YMU1; YMU1 4 weeks, 2-fold higher dose regimen than in the tumor xenograft study) was “did not alter mouse body weight”. The “toxic effect in normal mice” value (In vivo toxicity of YMU1; YMU1 on its own, 4 weeks) was “produces no toxic effect”, the “Blood Chemistry, Alanine Aminotransferase” value (In vivo toxicity of YMU1; n = 4, Mean ± SEM) was 32.00 ± 2.45 U/L and the “Blood Chemistry, Alkaline Phosphatase” value (In vivo toxicity of YMU1; n = 4, Mean ± SEM) was 389.25 ± 20.79 U/L. For the same compound, the “Blood Chemistry, Aspartate Aminotransferase” value (In vivo toxicity of YMU1; n = 4, Mean ± SEM) was 62.50 ± 5.26 U/L, the “Blood Chemistry, Blood Urea Nitrogen” value (In vivo toxicity of YMU1; n = 4, Mean ± SEM) was 19.08 ± 3.25 mg/dL and the “Blood Chemistry, Creatinine” value (In vivo toxicity of YMU1; n = 4, Mean ± SEM) was 0.10 ± 0.00 mg/dL. For the same compound, the “Blood Chemistry, Total protein” value (In vivo toxicity of YMU1; n = 4, Mean ± SEM) was 5.48 ± 0.25 g/dL, the “Hematology, Hb” value (In vivo toxicity of YMU1; n = 4, Mean ± SEM) was 16.25 ± 0.41 g/dl and the “Hematology, PCV” value (In vivo toxicity of YMU1; n = 4, Mean ± SEM) was 53.48 ± 2.50%. For the same compound, the “Blood Chemistry, Glucose” value (In vivo toxicity of YMU1; n = 4, Mean ± SEM, *P < 0.05) was 136.25 ± 14.31* mg/dl and the “death of cells in colony assay” value [3] was “did not”.
